# How the values were obtained:
# A375-NRAS^Q61K cells = assay: CTGlo Cell Viability Assay, A375-NRAS^Q61K (A375.11) cells, 96 hours; assay type: cell-based, human; settings: Homo sapiens, 96 h, A375.11 (A375-NRAS^Q61K) cells; for Emax: lowest % viability achieved
# In short: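 A375 cells carrying BRAF V600E and NRAS Q61K were seeded at 250 cells/well with a 10-point half-log dose series (max 10 μM final). After 96 h at 37 °C, viability was read as ATP luminescence (CellTiter-Glo), background-subtracted and normalized to DMSO (100%). GI50 from 4-parameter fit; Emax is the lowest % viability.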
# [1] = biological target: T1, human bile salt export pump (BSEP) efflux transporter (Homo sapiens, UniProt O95342); assay: BSEP Vesicular Transport Inhibition Assay (IC50 determination); assay type: biochemical; settings: human BSEP (HEK293) vesicles, taurocholate 0.2 μM, 4 mM Mg-ATP, 10 concentrations, 1 replicate
# T1 construct: purchased SOLVO Biotechnology Charles River Laboratories, Szeged, Hungary; host or cells: HEK293 (inside out membrane vesicles)
# Experimental: The vesicular transport (VT) assays were performed using inside out membrane vesicles derived from HEK293 cells expressing the specified human bile salt export pump (BSEP) efflux transporter. The membrane vesicles were procured from SOLVO Biotechnology Charles River Laboratories, Szeged, Hungary.
# The principle of the assay relies on measuring the accumulation of substrate into inside out vesicles containing the efflux transporter. By utilizing inside out vesicles, the ATP-dependent transport of substrate is directed into the vesicular lumen, where low permeability compounds are then essentially trapped.
# For the IC50 screen inhibition assay, 10 concentrations of each compound were tested in the presence of ATP (active transport) in 1 replicate.
# The solvent control (DMSO) was tested in the presence of ATP (active transport) and in the presence of AMP (background) in 8 replicates.
# Vesicular transport inhibition assays were performed using the specific parameters for each transporter inhibition assay described in Table 53.
# Table 54 specifies treatment groups and concentration of compounds, that were examined in the vesicular transport inhibition assay. Detailed data of IC50 screen inhibition assay are shown in Table 55 and detailed data of 1 concentration inhibition assay are shown in Table 56.
# The vesicular transport inhibition assay was performed with 4 mM Mg-ATP. For the IC50 screen inhibition assay, 10 concentrations of each compound were tested in the presence of ATP in 1 replicate. For the 1 concentration inhibition assay, 1 concentration of each compound was tested in the presence of ATP (active transport) in 2 replicates. The solvent control (DMSO) was tested in the presence of 4 mM Mg-ATP (active transport) and in the presence of 4 mM AMP (background) in 8 replicates.
# The BSEP membrane vesicle suspension was mixed with the ice-cold transport buffer, then the taurocholate probe substrate solution was added (Reaction mixture, 50 μL per well). The compounds were added to the reaction mixture at 1.5-times the final assay concentration. […].
# Reaction mixtures and the start reagent (Mg-ATP or AMP in transport buffer) were pre-warmed separately for 15 minutes to reach the incubation temperature of 37° C. […]
# The reaction was initiated by the addition of the start reagent (25 μL) to the reaction mixture (diluting the reaction mixture to the final concentration). […] After the 5-minute incubation at 37° C., the reaction was stopped by the addition of 250 μL ice-cold washing mix to each well. […]
# The samples were then be transferred to a filter plate and washed with 200 μL cold washing mix5-times to remove any free compounds or taurocholate probe substrate. The amount of taurocholate probe substrate inside the filtered vesicles were determined by liquid scintillation counting. […]
# T1 sequence (O95342 whole entry): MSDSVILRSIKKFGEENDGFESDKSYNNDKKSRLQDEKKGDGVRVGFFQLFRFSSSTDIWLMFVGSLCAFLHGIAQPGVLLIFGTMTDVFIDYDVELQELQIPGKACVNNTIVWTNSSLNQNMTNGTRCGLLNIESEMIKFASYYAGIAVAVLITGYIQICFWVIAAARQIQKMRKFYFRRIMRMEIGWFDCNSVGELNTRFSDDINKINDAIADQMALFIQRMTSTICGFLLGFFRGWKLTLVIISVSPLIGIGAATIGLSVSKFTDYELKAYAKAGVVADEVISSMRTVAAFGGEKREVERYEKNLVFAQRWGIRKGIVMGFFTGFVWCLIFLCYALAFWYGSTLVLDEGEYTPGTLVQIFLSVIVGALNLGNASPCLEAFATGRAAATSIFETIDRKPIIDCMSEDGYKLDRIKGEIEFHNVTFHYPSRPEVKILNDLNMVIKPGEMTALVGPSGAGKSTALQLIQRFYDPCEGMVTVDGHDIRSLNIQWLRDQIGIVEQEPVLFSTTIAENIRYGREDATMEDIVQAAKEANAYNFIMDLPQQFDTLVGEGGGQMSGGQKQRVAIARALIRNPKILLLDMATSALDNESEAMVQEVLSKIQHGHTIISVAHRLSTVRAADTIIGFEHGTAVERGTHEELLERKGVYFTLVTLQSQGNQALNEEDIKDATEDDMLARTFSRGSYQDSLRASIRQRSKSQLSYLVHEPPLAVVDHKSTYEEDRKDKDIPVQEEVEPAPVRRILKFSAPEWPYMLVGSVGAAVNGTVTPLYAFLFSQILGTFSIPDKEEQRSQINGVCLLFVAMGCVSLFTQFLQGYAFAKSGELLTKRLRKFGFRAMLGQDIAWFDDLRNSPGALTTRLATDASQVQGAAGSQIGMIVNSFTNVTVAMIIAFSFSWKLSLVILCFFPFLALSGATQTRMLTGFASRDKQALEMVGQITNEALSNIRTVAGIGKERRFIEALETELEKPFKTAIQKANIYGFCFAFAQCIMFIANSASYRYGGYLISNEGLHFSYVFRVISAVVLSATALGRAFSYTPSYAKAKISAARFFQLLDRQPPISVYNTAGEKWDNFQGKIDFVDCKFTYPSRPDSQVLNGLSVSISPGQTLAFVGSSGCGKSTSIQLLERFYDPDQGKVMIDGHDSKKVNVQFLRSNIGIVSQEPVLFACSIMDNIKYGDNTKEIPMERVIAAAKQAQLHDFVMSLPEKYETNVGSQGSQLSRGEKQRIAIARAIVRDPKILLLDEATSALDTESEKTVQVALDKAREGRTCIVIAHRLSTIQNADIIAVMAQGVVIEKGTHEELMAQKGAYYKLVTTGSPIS
Compound,GI50 (A375-NRAS^Q61K cells),Emax (A375-NRAS^Q61K cells),BSEP Inhibition/IC50 [1],BSEP Inhibition/IC50 ([1]; in nM)
"Cn1nc(N2CCC(=O)NC2=O)c2cc(F)c(N3CC4(CC(N5CCC6(CC5)CC(n5cnc7ccc(Oc8c(F)ccc(NS(=O)(=O)C9CCCC9)c8C#N)cc7c5=O)C6)C4)C3)cc21 [Compound 250, N-[2-cyano-3-[3-[7-[2-[3-(2,4-dioxohexahydropyrimidin-1-yl)-5-fluoro-1-methyl-indazol-6-yl]-2-azaspiro[3.3]heptan-6-yl]-7-azaspiro[3.5]nonan-2-yl]-4-oxo-quinazolin-6-yl]oxy-4-fluoro-phenyl]cyclopentanesulfonamide]",< 1000 nM,< 50%,8450 nM,
"Cn1nc(N2CCC(=O)NC2=O)c2cc(F)c(N3CC4(CC(N5CCC6(CC5)C[C@@H](n5cnc7ccc(Oc8c(F)ccc(NS(=O)(=O)N9CC%10(CCC%10)C9)c8C#N)cc7c5=O)CO6)C4)C3)cc21 [Compound 254, N-[2-cyano-3-[3-[(3R)-8-[2-[3-(2,4-dioxohexahydropyrimidin-1-yl)-5-fluoro-1-methyl-indazol-6-yl]-2-azaspiro[3.3]heptan-6-yl]-1-oxa-8-azaspiro[4.5]decan-3-yl]-4-oxo-quinazolin-6-yl]oxy-4-fluoro-phenyl]-2-azaspiro[3.3]heptane-2-sulfonamide]",< 1000 nM,< 50%,1740 nM,
"Cn1nc(N2CCC(=O)NC2=O)c2cc(F)c(N3CC4(CC(N5CCC6(CC5)CC(n5cnc7ccc(Oc8c(F)ccc(NS(=O)(=O)C9CCC9)c8C#N)cc7c5=O)C6)C4)C3)cc21 [Compound 259, N-[2-cyano-3-[3-[7-[2-[3-(2,4-dioxohexahydropyrimidin-1-yl)-5-fluoro-1-methyl-indazol-6-yl]-2-azaspiro[3.3]heptan-6-yl]-7-azaspiro[3.5]nonan-2-yl]-4-oxo-quinazolin-6-yl]oxy-4-fluoro-phenyl]cyclobutanesulfonamide]",< 1000 nM,< 50%,,12760
"Cn1nc(N2CCC(=O)NC2=O)c2cc(F)c(N3CC4(CC(N5CCC6(CC5)CC(n5cnc7ccc(Oc8c(F)ccc(NS(=O)(=O)C9CC9)c8C#N)cc7c5=O)C6)C4)C3)cc21 [Compound 260, N-[2-cyano-3-[3-[7-[2-[3-(2,4-dioxohexahydropyrimidin-1-yl)-5-fluoro-1-methyl-indazol-6-yl]-2-azaspiro[3.3]heptan-6-yl]-7-azaspiro[3.5]nonan-2-yl]-4-oxo-quinazolin-6-yl]oxy-4-fluoro-phenyl]cyclopropanesulfonamide]",< 1000 nM,50 to 90%,,12720

# Second part, led by results:
GI50 (A375-NRAS^Q61K cells),Compound,Emax (A375-NRAS^Q61K cells),BSEP Inhibition/IC50 [1],BSEP Inhibition/IC50 ([1]; in nM)
< 1000 nM,"Cn1nc(N2CCC(=O)NC2=O)c2cc(F)c(N3CC4(CC(N5CCC6(CC5)CC(n5cnc7ccc(Oc8c(F)ccc(NS(=O)(=O)N9CC[C@@H](F)C9)c8C#N)cc7c5=O)C6)C4)C3)cc21 [Compound 261, (3R)-N-[2-cyano-3-[3-[7-[2-[3-(2,4-dioxohexahydropyrimidin-1-yl)-5-fluoro-1-methyl-indazol-6-yl]-2-azaspiro[3.3]heptan-6-yl]-7-azaspiro[3.5]nonan-2-yl]-4-oxo-quinazolin-6-yl]oxy-4-fluoro-phenyl]-3-fluoro-pyrrolidine-1-sulfonamide]",< 50%,,>40000
< 1000 nM,"CC(C)S(=O)(=O)Nc1ccc(F)c(Oc2ccc3ncn(C4CC5(CCN(C6CC7(C6)CN(c6cc8c(cc6F)c(N6CCC(=O)NC6=O)nn8C)C7)CC5)C4)c(=O)c3c2)c1C#N (stereo not drawn) [Compound 273, N-[2-cyano-3-[3-[7-[2-[3-(2,4-dioxohexahydropyrimidin-1-yl)-5-fluoro-1-methyl-indazol-6-yl]-2-azaspiro[3.3]heptan-6-yl]-7-azaspiro[3.5]nonan-2-yl]-4-oxo-quinazolin-6-yl]oxy-4-fluoro-phenyl]propane-2-sulfonamide]",< 50%,,20580
< 1000 nM,"Cn1nc(N2CCC(=O)NC2=O)c2cc(F)c(N3CC4(CC(N5CCC6(CC5)CC(n5cnc7ccc(Oc8c(F)ccc(NS(=O)(=O)N9C[C@H]%10C[C@H]%10C9)c8C#N)cc7c5=O)C6)C4)C3)cc21 (stereo partly drawn) [Compound 277, (1R,5S)-N-[2-cyano-3-[3-[7-[2-[3-(2,4-dioxohexahydropyrimidin-1-yl)-5-fluoro-1-methyl-indazol-6-yl]-2-azaspiro[3.3]heptan-6-yl]-7-azaspiro[3.5]nonan-2-yl]-4-oxo-quinazolin-6-yl]oxy-4-fluoro-phenyl]-3-azabicyclo[3.1.0]hexane-3-sulfonamide]",50 to 90%,,11860
